Assay results reported in patent US5635458A, “Water-based drilling fluids for reduction of water adsorption and hydration of argillaceous rocks” (M-I Drilling Fluids, L.L.C., priority 1995, dated 1997).

Tests used:
[1] = Swelling test, Louisiana gumbo shale; conditions: gumbo shale pellets
Source text: The swelling inhibition effects of drilling fluids of this invention on water-sensitive shales have been evaluated by performing swelling tests using a Computer-Aided Swellmeter developed by M-I Drilling Fluids L.L.C. This device is described in, Lee, John, "Swellmeter Analysis," M-I® TECH-NEWS, November 1989. Pellets with 1 inch diameter, prepared by compressing pulverized water-sensitive shales under controlled loads, are placed in specially designed holders and allowed to be in direct contact with test fluids. The pellets are allowed to adsorb test fluids and swell for a period of time ranging from about 60 to 120 hours in the test fluids. Volume expansions of the pellets are recorded by using liner variable differential transformers. The volume expansions of the pellets and slopes of the swelling curves at the end of the test are used to evaluate the water adsorption and swelling inhibition of the test fluids.
The swelling tests were performed according to the test procedures given above. The argillaceous rock used for the tests was a "gumbo shale" obtained from offshore Louisiana. The gumbo shale was pulverized and pressed into 1 inch diameter pellets under 10,000 pounds of force for 5 minutes. The volume expansions of the pellets and the swelling rates calculated from swelling data obtained between 55 and 60 hours of the test are shown in Table 2. […]

[2] = cited from earlier work; for single-dose oral LD50: from Patty's Industrial Hygiene and Toxicology, 1978; for toxicity ranking / hazard in words: based on laboratory test data, direct ingestion
[3] = U.S. Pat. No. 4,830,765, cited from earlier work; for swelling of bentonite: 100% glycol fluid; for concentration needed to provide appreciable swelling inhibition on bentonite: in a fluid phase

| Molecule | single-dose oral LD50 [2] | toxicity ranking / hazard in words [2] | concentration needed to provide appreciable swelling inhibition on bentonite [3] [% by weight] | further results |
| --- | --- | --- | --- | --- |
| C[N+](C)(C)CCO.[Cl-] [Choline Chloride, choline chloride] |  |  |  | swelling inhibition in words [1]: more effective than the inorganic cationic material |
| OCCOCCO [Diethylene Glycol] | 16-21 gm/KG |  |  |  |
| OCCO [Ethylene Glycol] | 6-12 gm/KG | most toxic |  |  |
| CC(O)CO (stereo not drawn) [Propylene Glycol] | 21-34 gm/KG | least toxic | ≥ 50 | swelling of bentonite [3]: completely prevented |
| OCCOCCOCCO [Triethylene Glycol] | 16-22 gm/KG |  |  |  |
| CC(O)COC(C)COC(C)CO (stereo not drawn) [Tripropylene Glycol] |  |  |  | swelling of bentonite [3]: completely prevented |
| OCC(O)CO [glycerin] |  |  | ≥ 50 |  |
| OC[C@@H](O)[C@@H](O)[C@H](O)[C@@H](O)CO [sorbitol] |  |  | ≥ 50 |  |
| Butylene Glycol | 23-30 gm/KG | least toxic |  |  |
| Dipropylene Glycol | ~ 15 gm/KG |  |  |  |
